{"source": "patent US20250288645A1", "about": "“USE OF GsMTx4 AND GsMTx4 CONJUGATES TO IMPROVE RECOVERY FROM JOINT INJURY” (priority 2023, published 2025)", "key": {"[1]": {"system": "humeral head chondrocytes", "experiment": "Explanted humeral head impact loading (2 mJ) after incubation with channel agonists", "assay_type": "cell-based, mouse", "settings": "10 μM yoda1 or 5 nM GSK101, 15 minutes, 2 mJ load; for humeral head chondrocyte cell death following impact loading, female mice: relative to control media; for humeral head chondrocyte cell death following impact loading, male mice: relative to controls (DMSO 0.25%)", "experimental": "Ethical approval was obtained from the appropriate institutional committee Humeri were harvested from wild-type 12-22 week old C57Bl/6 male and female mice. Each specimen was placed in calcium imaging buffer with 2 mM calcium chloride and subsequently incubated with 10 μM calcein-AM for 30 minutes at 37° C. To indicate intracellular esterase activity of living cells, each specimen was incubated with 10 μM yoda1, a Piezo1-specific agonist, 5 nM GSK101, a TRPV4-agonist, or control (DMSO 0.25%, n=7-10/group) in calcium imaging buffer for 15 minutes. Specimens were then incubated with 1.5 nM ethidium homodimer-1 for 3 minutes to indicate loss of plasma membrane integrity in dead cells. The specimen was then arranged in a custom 3-D printed holding device such that the chondrocytes within the apex of sphericity of the humeral head were facing the glass well of a dish to be imaged on an inverted confocal microscope. A baseline confocal image with overlay of 100 μm Z-stacks was obtained with 488 and 594 nm wavelengths to image live and dead cells, respectively. The humerus was then transferred to a custom impact loading apparatus. A 2 mJ load was applied to the lateral aspect of the proximal humerus, such that the convex apex of the humeral head cartilage was impacted against the glass microscope dish. A 2 mJ load was chosen based on preliminary work by Kotelsky to define mechanic-vulnerability of distal femur and proximal humerus articular chondrocytes in the custom loading apparatus. The samples were again incubated in ethidium homodimer-1. A post-injury confocal image with overlay of 100 μm Z-stacks was obtained. A custom MATLAB image processing algorithm was developed to quantify cell viability. The confocal images were processed as maximum intensity projections with threshold via Otsu's method. Then, watershed segmentation, distance transform, and centroid approximation algorithms were created and applied to segment and quantify individual cells based on intensity values. This facilitated the cell counting process, allowed quantification of the total cell area, and allowed adjustment of the region of interest between before- and after-impact micrographs."}, "[2]": {"system": "chondrocytes", "experiment": "Cartilage pre-treated with Yoda1: chondrocyte vulnerability to mechanical injury", "assay_type": "cell-based, murine", "settings": "cartilage pre-treated with Yoda1, versus vehicle-treated controls in contralateral limbs"}}}
{"smiles": "Clc1cccc(Cl)c1CSc1nnc(-c2cnccn2)s1", "note": "[Yoda1]", "values": [{"measurement": "humeral head chondrocyte cell death following impact loading, female mice", "setting": "[1]", "value": "not a significant increase in chondrocyte cell death"}, {"measurement": "humeral head chondrocyte cell death following impact loading, male mice", "setting": "[1]", "value": "statistically significant increase in humeral head chondrocyte cell death"}, {"measurement": "chondrocyte vulnerability to mechanical injury", "setting": "[2]", "value": "significantly higher chondrocyte vulnerability"}]}
{"smiles": "CC(C)C[C@H](NC(=O)c1cc2ccccc2s1)C(=O)N1CCN(C(=O)[C@H](CO)NS(=O)(=O)c2ccc(Cl)cc2Cl)CC1", "note": "[Gsk101]", "values": [{"measurement": "humeral head chondrocyte cell death following impact loading, female mice", "setting": "[1]", "value": "nor was incubation with Gsk101 chondroprotective"}, {"measurement": "humeral head chondrocyte cell death following impact loading, male mice", "setting": "[1]", "value": "statistically significant decrease in humeral head chondrocyte cell death"}]}
